From PMC4502414, “Transforming berberine into its intestine-absorbable form by the gut microbiota” (Scientific Reports, 2015)
Where two headings read alike, the source gives them in different places.

Legend:
nitroreductase = target: T1, nitroreductase (Escherichia coli, UniProt P38489); assay: Nitroreductase-mediated BBR reduction, cell-free incubation; format: biochemical; conditions: 2-IBA 100 μM, nitroreductase-containing cell-free incubation; read-out: inhibition rate of BBR-to-dhBBR conversion
T1 construct: purchased Sigma-Aldrich Co. (Shanghai, China); host or cells: Escherichia coli
Description: (§1) BBR was incubated with nitroreductase in intestinal bacteria cultures. The reaction mixture consisted of BBR (50 μg/ml), an NADPH-regenerating system and nitroreductase (5 μg/ml) in a final volume of 1 ml under the protection of N2. After incubation for 0, 2, 4, 6 and 12 h at 37 °C, the reaction was terminated by the addition of 1 ml of ice-cold acetonitrile. The samples were then extracted with 1 ml of ethyl acetate after adding 1 ml of 0.5 M sodium hydroxide solution. The organic phase was evaporated to dryness under a nitrogen flow in a water bath at 40 °C. The residue was dissolved with 200 μl of the mobile phase for further analysis. 2-Iodosobenzoic acid (2-IBA), a specific inhibitor of nitroreductase, was used to verify the role of bacterial nitroreductase.

[1] = tested on: mixture of rat gut bacteria; assay: BBR-to-dhBBR conversion in rat gut bacteria mixture with nitroreductase inhibitor; format: cell-based; conditions: 2-IBA in BBR incubation with mixture of rat gut bacteria, 12 h
Description: as §1

[2] = Plasma concentration of BBR in KK-Ay mice treated or untreated with antibiotics; format: in vivo; conditions: for Cmax at 14 day: KK-Ay, mouse, plasma, oral, 200 mg/kg, BBR 200 mg/kg qd
Description: Blood samples of the mice in Groups 1 and 2 were collected into a heparinized tube 30 min after the oral administration of BBR. The samples were taken at days 1, 3, 6, 10 and 14 of the BBR treatment course. The samples were centrifuged at 10,000 g for 5 min, and the plasma was collected and stored at −80 °C before analysis.

[3] = parameters: method as in PMID 21637946, PMID 12530470; conditions: cited from earlier work
[4] = Plasma pharmacokinetics after oral dhBBR or BBR in rats; format: in vivo, SD rats; conditions: SD, rat, plasma, po, 200 mg/kg
Description: The plasma (100 μl) was precipitated with 100 μl of acetonitrile after addition of 10 μl of the internal standard. BBR served as a control in the study. The plasma concentrations of BBR and dhBBR were determined using LC-MS/MS 8040 and LC-MS/MS 8050.

[5] = parameters: method as in PMID 24174332; conditions: patients; cited from earlier work
17 intestinal bacteria = assay: Anti-bacterial test (MIC, broth microdilution); format: cell-based; conditions: 24 h
Description: Seventeen bacterial strains (see above) were used in the susceptibility test for BBR and dhBBR. The bacterial strains, which belong to different species of bacteria, were collected and identified as described above. The minimum inhibitory concentrations (MICs) of BBR and dhBBR after 24 h were determined through the broth microdilution method according to the CLSI guidelines. BBR and dhBBR were tested at a concentration range of 8 to 512 μg/ml. The MIC was defined as the lowest concentration of an agent that prevents turbidity. The experiment was repeated three times. All of the bacterial strains tested in this study (S. aureus ATCC 29213, E. faecalis ATCC 29212, E. coli ATCC 25922, S. aureus 08-43, S. epidermidis 12-12, E. faecium 13-01, E. faecalis 13-01, E. coli 06-05, K. pneumoniae 13-14, Ps. aeruginosa 13-10, A. baumannii 13-02, E. cloacae 13-12, and P. mirabilis 13-01) were facultative anaerobes, of which S. aureus ATCC 29213, E. faecalis ATCC 29212 and E. coli ATCC 25922 were standard strains from ATCC (USA) and served as quality controls. L. casei ATCC 334, L. acidophilus ATCC 4356, B. longum ATCC 15707, and B. breve ATCC 15700 were also tested in this anti-bacterial experiment. Ampicillin was used as the positive control.

[6] = Plasma BBR in pseudo germ-free versus conventional rats after oral BBR; format: in vivo; conditions: male, SD, rat, 200 mg/kg, oral BBR 200 mg/kg
Description: (§2) Male SD rats (180–200 g) were orally treated with cefadroxil (100 mg/kg), terramycin (300 mg/kg) and erythromycin (300 mg/kg) twice a day for 3 days, and pharmacokinetic examination was performed 2 days after final administration. The colon contents of the rats were collected on the first and third days after the final treatment with antibiotics, and the germ-free status was confirmed by culturing fecal samples aerobically on a nutrient agar culture medium. Fecal samples from non-antibiotic-exposed rats served as control samples.
Before oral administration of a single dose of BBR (200 mg/kg), the PGF rats were fasted overnight with free access to water. Blood samples were collected from the posterior orbital venous plexus into a heparinized tube at 0, 0.25, 0.5, 1, 1.5, 2, 3, 4, 6, 8, and 12 h post-BBR treatment and then subjected to the procedure described above. Fecal samples were also collected at 0, 6, 12, 24, 36 and 48 h post-BBR treatment. The samples were stored at −20 °C for further analysis.

[7] = Therapeutic effect of BBR on hyperglycemia and hyperlipidemia in KK-Ay mice with or without antibiotics; format: in vivo
Source text: KK-Ay mice with type 2 diabetes (female, 12 ± 1 weeks of age) were purchased from the Institute of Laboratory Animal Sciences, Chinese Academy of Medical Sciences (Beijing, China). […] Antibiotics at the doses described above were orally administered to KK-Ay mice for 3 days before the BBR treatment course, and the pseudo germ-free (PGF) state of the experimental mice was confirmed (see above). Four groups (n = 6 for each group) were used in the experiment: Group1, PGF KK-Ay mice orally treated with antibiotics (qd, at the dosage described above) plus BBR (200 mg/kg, qd) for 2 weeks; Group 2, untreated KK-Ay mice orally treated with BBR (200 mg/kg, qd) for 2 weeks; Group 3, PGF KK-Ay mice orally treated with antibiotics (qd, at a dosage identical to that for Group 1) for 2 weeks; Group 4, untreated KK-Ay mice. The antibiotics were administered in the morning and BBR was administered in the afternoon. All the animals were fed a high-fat diet. […] All of the mice were euthanized on day 14, and blood samples were taken to measure the fasting serum glucose (Glu), triglyceride (TG) and cholesterol (CHO) using Glu, TG and CHO reagent kits (Biosino Bio-Technology and Science INC, Beijing China), respectively. C57BL/6J mice were used as a wild-type reference. The body weights of the mice before, during and after treatments were recorded for 14 days.

[8] = Absorption of BBR and dhBBR in Caco-2 cells; format: in vitro ADME; conditions: human
Description: A Caco-2 cell assay was conducted using a method reported previously. […] To determine the rate of drug transport in the apical-to-basolateral direction, 200 μl of the compound working solution was added to the filter well (apical compartment), and 800 μl of HBSS was added to the receiver plate (basolateral compartment). Accordingly, to determine the rate of drug transport in the basolateral-to-apical direction, 800 μl of the compound working solution was added to each well of the receiver plate and 200 μl of HBSS was added to the filter well. The plates were incubated for 30 min at 37 °C with shaking at 150 rpm on a rotary shaker. At the end of the transport period, aliquots of 50 μl were removed directly from the apical and basolateral wells and transferred to wells of new plates. Four volumes of cold methanol containing internal standards were added into each well. The samples were centrifuged at 16,000 g for 15 min. Aliquots of 200 μl of the supernatant were used for the LC-MS/MS analysis.

[9] = 72-h cumulative fecal excretion of BBR and dhBBR in pseudo germ-free (PGF) and conventional rats; format: in vivo, SD rats; conditions: oral BBR 200 mg/kg
Description: as §2, with “samples. Before oral administration of a single dose of BBR (200 mg/kg), the PGF rats were fasted overnight with free access to water. […] The samples were stored at −20 °C for further analysis.” for “samples.”

[10] = Effect of ions on the dhBBR-to-BBR transformation; conditions: EDTA-2Na 10 mM
Description: dhBBR was added into the reaction solution containing FeCl3, CuCl2, ZnCl2, and NaCl (at concentrations of 0.033, 0.333 and 3.33 mM, respectively). Ethylenediaminetetraacetic acid disodium salt (EDTA-2Na, 10 mM), a chelating agent for metal ions, was used in the test.

[11] = Effect of heat inactivation and vitamin C on dhBBR-to-BBR transformation in rat small intestine homogenate; format: in vitro ADME; conditions: added to the reaction solution
Description: The rats (n = 3) were sacrificed to obtain fresh small intestine homogenate. The homogenate was then boiled for 2 min to inactivate all of the enzymes. After pre-incubation at 37 °C for 2 min, 5 μl of dhBBR (10 mM, dissolved in DMSO) was added into the inactivated homogenate, and fresh homogenate (active one) was used as a reference. The sample was mixed thoroughly and centrifuged at 16,000 g for 5 min. The supernatant was transferred into new tubes, treated with 500 μl of acetonitrile, and then centrifuged. Twenty-microliter aliquots were used for the HPLC analysis.
To examine the oxidative reaction, 100 μl of vitamin C was pre-incubated with the inactivated homogenate; the final concentrations of vitamin C were 95, 9.5 and 0.95 mM. The superoxide anion in the sample was detected with an O2^− ELISA kit (Beijing Biolab Co., Ltd., Beijing, China; lot: 201404) following the manufacturer’s instructions.

[12] = parameters: method as in PMID 18285556; conditions: cited from earlier work

T1 sequence (P38489 whole entry): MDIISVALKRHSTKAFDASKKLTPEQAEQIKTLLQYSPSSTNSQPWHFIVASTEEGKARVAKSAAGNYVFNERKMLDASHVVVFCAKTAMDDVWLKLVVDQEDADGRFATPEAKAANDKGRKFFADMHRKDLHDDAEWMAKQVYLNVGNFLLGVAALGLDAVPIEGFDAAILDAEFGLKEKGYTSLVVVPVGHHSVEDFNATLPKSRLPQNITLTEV

Molecule: O=Ic1ccccc1C(=O)O [2-IBA, 2-iodosobenzoic acid]
- inhibition at 100 µM (nitroreductase): 88.3%
- inhibition of dhBBR production [1]: 78.7%

Molecule: COc1ccc2cc3[n+](cc2c1OC)CCc1cc2c(cc1-3)OCO2 [BBR, berberine]
- Cmax at 14 day ([2]; day 14, mice treated with antibiotics (Group 1)): 28.3 ± 3.41 ng/mL
- Cmax at 14 day ([2]; day 14, mice without antibiotics (Group 2)): 178 ± 57.6 ng/mL
- Folds of Cmax [BBR / (BBR+Antibiotics)] ([2]; day 14): 6.4 fold
- Folds of Cmax, Group 2 over Group 1 ([2]; throughout days 1, 3, 6, 10 and 14): 3.5-6.5 fold
- water solubility [3]: poor water solubility
- AUC(0-t) ([4]; oral BBR 200 mg/kg, Fig. 3c curve 2, read-out: AUC(0-t) of BBR in plasma): 54.6 ng·h/mL
- Cmax ([4]; oral BBR 200 mg/kg, Fig. 3c curve 2, read-out: Cmax of BBR in plasma): 16.1 ng/mL
- AUC(0-t) ([4]; oral dhBBR 200 mg/kg, read-out: AUC(0-t) of BBR in blood): 262 ng·h/mL
- Cmax ([4]; oral dhBBR 200 mg/kg, read-out: Cmax of BBR in blood): 52.5 ng/mL
- reduction of LDL-c level [5]: 10–25%
- reduction of fasting blood glucose level [5]: 21–36%
- reduction of triglyceride level [5]: 20–35%
- MIC (17 intestinal bacteria; span over 17 strains, read-out: minimal inhibitory concentration (MIC) on the 17 bacteria): > 128 µg/mL
- MIC (17 intestinal bacteria; read-out: MIC, most of the 17 tested strains): ≥ 512 µg/mL
- AUC(0-t) ([6]; conventional SD rat): 70.9 ng·h/mL
- Cmax ([6]; conventional SD rat): 26 ng/mL
- AUC(0-t) ([6]; pseudo germ-free rat): 11.9 ng·h/mL
- Cmax ([6]; pseudo germ-free rat): 6.92 ng/mL
- reduction of therapeutic efficacy of BBR on cholesterol by antibiotics ([7]; Group 1 vs Group 2, day 14): 44%
- reduction of therapeutic efficacy of BBR on triglyceride by antibiotics ([7]; Group 1 vs Group 2, day 14): 53%
- reduction of therapeutic efficacy of BBR on fasting blood glucose by antibiotics ([7]; antibiotics before and during BBR (Group 1) vs BBR only (Group 2), day 14): 42%
- efflux ratio at 30 min, 5 μM ([8]; Caco-2, pH 7.4, read-out: efflux ratio (ER)): 32.4
- Papp A→B at 30 min, 5 μM ([8]; pH 7.4, Caco-2, 5 μM, 30 min): 0.38 ×10⁻⁶ cm/s
- total BBR in feces over 72 h, % of the administered amount ([9]; PGF rats): 27.81%
- total BBR in feces over 72 h, % of the administered amount ([9]; untreated (conventional) rats): 18.67%

Molecule: O=C([O-])CN(CCN(CC(=O)O)CC(=O)O)CC(=O)[O-].[Na+].[Na+] [EDTA-2Na, Ethylenediaminetetraacetic acid disodium salt]
- reduction of dhBBR-to-BBR oxidization [10]: 5%

Molecule: O=C1O[C@H]([C@@H](O)CO)C(O)=C1O [vitamin C]
- effect on dhBBR-to-BBR reversion [11]: almost completely terminated

Molecule: dihydroberberine sulfate
- absorption in the intestine compared with BBR [12]: better absorption
